The values that follow come from patent US20010034362A1, “Pyrrolidine derivatives for vision and memory disorders” (Guilford Pharmaceuticals Inc., priority 1998, published 2001).

The target of one data set is FKBP12 (Homo sapiens, UniProt P62942). Briefly: Inhibition of peptidyl-prolyl isomerase (rotamase) activity of FKBP, chymotrypsin-coupled assay, apparent Ki. The class given is biochemical. An excerpt:
The inhibition of the prolyl peptidyl cis-trans isomerase activity of FKBP may be measured as an indicator of this affinity. Inhibition of the peptidyl-prolyl isomerase (rotamase) activity of the compounds used in the inventive methods and pharmaceutical compositions can be evaluated by known methods described in the literature (Harding et al., Nature, 1989, 341:758-760; Holt et al. J. Am. Chem. Soc., 115:9923-9938). […] The cis-trans isomerization of an alanine-proline bond in a model substrate, N-succinyl-[…]-nitroanilide, is monitored spectrophotometrically in a chymotrypsin-coupled assay, which releases para-nitroanilide from the trans form of the substrate. […] The reaction is initiated by the addition of […] of substrate (succinyl-[…]-nitroanilide, 5 mg/ml in 2.35 mM LiCl in trifluoroethanol).

Data set [1] is described as follows: Clearance (Table V comments). The data set is classed as in vitro ADME.
Data set [2] concerns retinal ganglion cell axons. Briefly: Protection of retinal ganglion cell axons from degeneration following optic nerve transection (Table V). The class given is in vivo. To be noted: ± SEM. An excerpt:
Efficacy of representative compounds from different immunophilin ligand series in protecing retinal gangiou cell axons from degeneration following optic nerve transection is set forth in Table V.

Where [3] appears, read: Table V comments, read-out: Ki rotamase.
Setting [4] is: apparent Ki, rotamase inhibition, Table A, read-out: K1.

Each structure is given as a SMILES string. Like-named read-outs stand apart in the source and are kept apart here.

Chain of FKBP12 (P62942 whole entry, species assumed): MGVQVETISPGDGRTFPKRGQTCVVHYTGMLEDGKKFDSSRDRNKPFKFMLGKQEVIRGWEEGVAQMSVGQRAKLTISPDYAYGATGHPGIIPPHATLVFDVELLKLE

Regarding `CN(C)C(=O)N1CCC[C@H]1C(=O)SCCCc1ccccc1` [N], at FKBP12 (setting [3]), the Ki was 722 nM. The same compound came in with a Clearance in data set [1] of 21.9 µL/min.
Regarding `O=C(OCCCc1cccnc1)[C@@H]1CCCN1C(=S)NC1CCCCC1` [I], the Ki on FKBP12 (setting [3]) came out at 131 nM. The compound also displayed a Clearance in data set [1] of 8.0 µL/min.
For `CCC(C)(C)C(=O)C(=O)N1CCCC1C(=O)OCC=Cc1cc(OC)ccc1OC` [Compound 15, 3-(2,5-dimethoxyphenyl)-1-prop-2-(E)-enyl (2S)-1-(3,3-dimethyl-1,2-dioxopentyl)-2-pyrrolidine-carboxylate], the Ki at FKBP12 (setting [4]) was determined as 450 nM.
In turn, `CCC(C)(C)C(=O)C(=O)N1CCCC[C@H]1C(=O)SCCC(c1ccccc1)c1ccccc1` [K] displayed a Clearance in data set [1] of 5.2 µL/min. Further, the “RT97 + RGC axon density 14 days after ON transection (% ON axons rescued)” value in data set [2] is on record as 7.8% ± 3.0% SEM.
For `CCC(C)(C)C(=O)C(=O)N1CCCC1C(=O)OC(CCc1ccccc1)CCc1ccccc1` (stereo not drawn) [E] the same measures were 41.8 µL/min and 56.6% ± 9.4% SEM.
`O=C(OCCCc1ccccc1)[C@@H]1CCCN1S(=O)(=O)Cc1ccccc1` [D]: the “RT97 + RGC axon density 14 days after ON transection (% ON axons rescued)” value in data set [2] is given as 58.4% ± 6.4% SEM.
`CCC(C)(C)C(=O)C(=O)N1CCCC1C(=O)OCC=Cc1cc(OC)c(OC)c(OC)c1` [Compound 4, 3-(3,4,5-trimethoxyphenyl)-1-prop-2-(E)-enyl (2S)-1-(3,3-dimethyl-1,2-dioxopentyl)-2-pyrrolidine carboxylate]: at FKBP12 (setting [4]), the Ki was 65 nM.
`CCC(C)(C)C(=O)C(=O)N1CCC[C@H]1C(=O)O` [L] registered a Clearance in data set [1] of 5.2 µL/min. Besides, the “RT97 + RGC axon density 14 days after ON transection (% ON axons rescued)” value in data set [2] is recorded as 7.8% ± 3.0% SEM.
For the compound `CCC(C)(C)C(=O)C(=O)N1CCCC1C(=O)OCC=CC1CCCCC1` [Compound 8, 3-cyclohexyl-1-prop-2-(E) -enyl (2S) -1-(3,3-dimethyl-1,2-doxopentyl)-2-pyrrolidinecarboxylate], the Ki at FKBP12 (setting [4]) stood at 600 nM.
`O=C(C(=O)N1CCCC1C(=O)OCCCc1ccccc1)c1cccs1` [Compound 11, 3-phenyl-1-propyl (2S)-1-(1,2-dioxo-2-[2-thienyl])ethyl-2-pyrrolidinecarboxylate]: on FKBP12 (setting [4]), the Ki came out at 92 nM.
With `CCC(C)(C)C(=O)C(=O)N1CCC[C@H]1C(=O)CCCCc1cccnc1` [J], the Clearance in data set [1] worked out at 1.5 µL/min.
With `CCC(C)(C)C(=O)C(=O)N1CCC[C@H]1C(=O)OCCCc1ccccc1` [Compound 1, 3-Phenyl-1-propyl (2S)-1-(3,3-dimethyl-1,2-dioxopentyl)-2-pyrrolidinecarboxylate], on FKBP12 (setting [4]), the Ki came to 42 nM.
Consider `O=C(SCCCc1ccccc1)[C@@H]1CCCN1C(=O)NC12CC3CC(CC(C3)C1)C2` [B], for which, at FKBP12 (setting [3]), the Ki came out at 149 nM.
Still for that read-out and setting: the value for `CCC(C)(C)C(=O)C(=O)N1CCS[C@@H]1C(=O)OCCCc1cccnc1` [F] was 272 nM.
Consider `O=C(C(=O)N1CCCC1C(=O)OCCC(c1ccccc1)c1ccccc1)C1CCCCC1` [Compound 29, 3,3-Diphenyl-1-propyl (2S)-1-cyclohexyl glyoxyl-2-pyrrolidinecarboxylate], for which the Ki on FKBP12 (setting [4]) came out at 20 nM.
On the same count and under the same terms, the value for `CCC(C)(C)C(=O)C(=O)N1CCCC1C(=O)OCC=Cc1ccc2c(c1)OCO2` [Compound 6, 3-(4,5-methylenedioxyphenyl)-1-prop-2-(E)-enyl (2S)-1-(3,3-dimethyl-1,2-dioxopentyl)-2-pyrrolidinecarboxylate] was 160 nM; that for `CCC(C)(C)C(=O)C(=O)N1CCCC1C(=O)OCC=Cc1ccccc1` [Compound 2, 3-phenyl-1-prop-2-(E)-enyl (2S)-1-(3,3-dimethyl-1,2-dioxopentyl)-2-pyrrolidinecarboxylate] was 125 nM.
Consider `O=C(SCCCc1ccccc1)[C@@H]1CCCN1S(=O)(=O)Cc1ccccc1` [C], for which the Ki on FKBP12 (setting [3]) came to 107 nM. In addition, the Clearance in data set [1] was determined as 31.1 µL/min. In data set [2], the “RT97 + RGC axon density 14 days after ON transection (% ON axons rescued)” value was 60.4% ± 3.1% SEM.
For the compound `O=C(C(=O)N1CCCC1C(=O)OCCCc1ccccc1)c1ccccc1` [Compound 13, 3-phenyl-1-propyl (2S)-1-(1,2-dioxo-2-phenyl)ethyl-2-pyrrolidinecarboxylate], on FKBP12 (setting [4]), the Ki amounted to 1970 nM.
For the compound `CCC(C)(C)C(=O)C(=O)N1CCC[C@H]1C(=O)SCCC(c1ccccc1)c1ccccc1` [M], the Clearance in data set [1] was found to be 12.5 µL/min. Moreover, in data set [2], the “RT97 + RGC axon density 14 days after ON transection (% ON axons rescued)” value was −6.3% + 3.9 SEM.
Regarding `O=C(C(=O)N1CCCC1C(=O)OCCCc1ccccc1)c1nccs1` [Compound 12, 3-phenyl-1-propyl (2S)-1-(1,2-dioxo-2-[2-thiazolyl])ethyl-2-pyrrolidinecarboxylate], the Ki at FKBP12 (setting [4]) is 100 nM.
The same measure, in the same setting: to `O=C(C(=O)N1CCCC1C(=O)OCCC(c1ccccc1)c1ccccc1)c1cccs1` [Compound 30, 3,3-Diphenyl-1-propyl (2S) -1-(2-thienyl) glyoxyl-2-pyrrolidinecarboxylate] belongs 150 nM.
